Like-named read-outs stand apart in the source and are kept apart here.

The subject of assay [1] is Beet Armyworm (Spodoptera exigua). Put plainly: Insecticidal diet-surface test for beet armyworm. The format is in vivo. Conditions: 120 h, read-out: LAPHEG AVG % Mortality (50 μg/cm^2). As for the experimental part: (§1) The compounds identified in Table 1 were tested against beet armyworm and corn earworm as follows:
(§2) Insecticidal Test for Corn Earworm (Helicoverpa zea) and Beet Armyworm (Spodoptera exigua).
(§3) To prepare test solution, the test compound was formulated at 2000 ppm solution as 4 mg/2 mL of 9 acetone:1 tap water. 50 μL of the 2000 ppm (equivalent to 50 μg/cm^2 dose on diet surface area) test solution was pipetted upon the surface of 1 mL of lepidopteran diet (Southland Multi-Species Lepidopteran Diet) contained in each of eight wells per insect species (one well=1 replication). A second-instar corn earworm and beet armyworm was placed upon the treated diet in each well once the solvent had air-dried. Trays containing the treated diet and larvae were covered and then held in a growth chamber at 25° C., 50-55% RH, and 16 hr light:8 hr dark for 5 days. Observation were conducted 5 days after treatment and infestation. The number of dead insects of 8 per species per treatment was then determined and the results are given in Table 2 as a percent control at a dose of […].

Assay [2] has as its system Corn Earworm (Helicoverpa zea). The experiment in a line: Insecticidal diet-surface test for corn earworm. Conditions: 120 h, read-out: HELIZE AVG % Mortality (50 μg/cm^2). Type of assay: in vivo. As for the experimental part: as §1, §2, §3
[3] abbreviates: second-instar larvae on treated diet, 50 μg/cm^2 on diet surface, 5 days after treatment, 8 insects per treatment.

`O=C(Nc1ccc(OC(F)(F)F)cc1)N(COCc1ccccc1)c1nc(OCC(F)(F)F)cc(OCC(F)(F)F)n1` [Compound 43]: the mortality at 50 µg/cm2 in assay [1] (setting [3]) and in assay [2] (setting [3]) was 100% in each case.

For `CCOCN(C(=O)Nc1nc(OCC(F)(F)F)cc(OCC(F)(F)F)n1)c1ccc(OC(F)(F)F)cc1` [Compound 44], the mortality at 50 µg/cm2 in assay [1] (setting [3]) and in assay [2] (setting [3]) was 100% in each case.

In the case of `COCN(C(=O)Nc1nc(OCC(F)(F)F)cc(OCC(F)(F)F)n1)c1ccc(OC(F)(F)F)cc1` [Compound 45], the mortality at 50 µg/cm2 in assay [1] (setting [3]) and in assay [2] (setting [3]) was 100% each time.

For the compound `CCN(C(=O)Nc1nc(OCC(F)(F)F)cc(OCC(F)(F)F)n1)c1ccc(Br)nc1` [Compound 46], the mortality at 50 µg/cm2 in assay [1] (setting [3]) and in assay [2] (setting [3]) was 100% each time.

In the case of `CN(C(=O)Nc1nc(OCC(F)(F)F)cc(OCC(F)(F)F)n1)c1ccc(C(F)(F)F)nc1` [Compound 47], the mortality at 50 µg/cm2 in assay [1] (setting [3]) and in assay [2] (setting [3]) was 100% each time.

Turning to `CN(C(=O)Nc1nc(OCC(F)(F)F)cc(OCC(F)(F)F)n1)c1ccc(Cl)nc1` [Compound 48], the mortality at 50 µg/cm2 in assay [1] (setting [3]) and in assay [2] (setting [3]) was 100% throughout.

In the case of `O=C(Nc1ccc(Cl)nc1)Nc1nc(OCC(F)(F)F)cc(OCC(F)(F)F)n1` [Compound 49], the mortality at 50 µg/cm2 in assay [1] (setting [3]) and in assay [2] (setting [3]) was 100% in each case.

For `COCCN(C(=O)Nc1nc(OCC(F)(F)F)cc(OCC(F)(F)F)n1)c1ccc(OC(F)(F)F)cc1` [Compound 50], the mortality at 50 µg/cm2 in assay [1] (setting [3]) and in assay [2] (setting [3]) was 100% in each case.

`CC(C)(C)COCN(C(=O)N(COCc1ccccc1)c1nc(OCC(F)(F)F)cc(OCC(F)(F)F)n1)c1ccc(C(F)(F)F)cc1` [Compound 51]: the mortality at 50 µg/cm2 is 100% in assay [1] (setting [3]) and 0% in assay [2] (setting [3]).

Take `COCCOCN(C(=O)N(COCc1ccccc1)c1nc(OCC(F)(F)F)cc(OCC(F)(F)F)n1)c1ccc(C(F)(F)F)cc1` [Compound 52]: the mortality at 50 µg/cm2 in assay [1] (setting [3]) and in assay [2] (setting [3]) was 100% throughout.

In the case of `CC(C)OCN(C(=O)Nc1nc(OCC(F)(F)F)cc(OCC(F)(F)F)n1)c1ccc(C(F)(F)F)cc1` [Compound 53], the mortality at 50 µg/cm2 in assay [1] (setting [3]) and in assay [2] (setting [3]) was 100% each time.

`O=C(Nc1ccc(I)cc1)Nc1nc(OCC(F)(F)F)cc(OCC(F)(F)F)n1` [Compound 54]: the mortality at 50 µg/cm2 in assay [1] (setting [3]) and in assay [2] (setting [3]) was 100% each time.

Consider `N#Cc1ccc(NC(=O)Nc2nc(OCC(F)(F)F)cc(OCC(F)(F)F)n2)cc1Cl` [Compound 55], for which the mortality at 50 µg/cm2 amounted to 0% in assay [1] and 100% in assay [2].

For the compound `O=C(Nc1ccc([N+](=O)[O-])cc1)Nc1nc(OCC(F)(F)F)cc(OCC(F)(F)F)n1` [Compound 56], the mortality at 50 µg/cm2 in assay [1] (setting [3]) came to 0%; in assay [2] (setting [3]) it was 100%.

`CSc1ccc(NC(=O)Nc2nc(OCC(F)(F)F)cc(OCC(F)(F)F)n2)cc1` [Compound 57]: the mortality at 50 µg/cm2 in assay [1] (setting [3]) is 0%; in assay [2] (setting [3]), 100%.

Consider `O=C(Nc1ccc(SC(F)(F)F)cc1)Nc1nc(OCC(F)(F)F)cc(OCC(F)(F)F)n1` [Compound 58], for which the mortality at 50 µg/cm2 in assay [1] (setting [3]) and in assay [2] (setting [3]) was 100% throughout.

As for `O=C(Nc1ccc(S(=O)(=O)C(F)(F)F)cc1)Nc1nc(OCC(F)(F)F)cc(OCC(F)(F)F)n1` [Compound 59], the values for the mortality at 50 µg/cm2 in assay [1] (setting [3]) and in assay [2] (setting [3]) were 0% and 100%, respectively.

On to `CC(C)(C)COCN(C(=O)Nc1nc(OCC(F)(F)F)cc(OCC(F)(F)F)n1)c1ccc(C(F)(F)F)cc1` [Compound 61], for which the mortality at 50 µg/cm2 in assay [1] (setting [3]) and in assay [2] (setting [3]) was 100% in each case.

On to `COCCOCN(C(=O)Nc1nc(OCC(F)(F)F)cc(OCC(F)(F)F)n1)c1ccc(C(F)(F)F)cc1` [Compound 62], for which the mortality at 50 µg/cm2 in assay [1] (setting [3]) and in assay [2] (setting [3]) was 100% throughout.

As for `O=C(Nc1ccc(Br)cc1)N(COCc1ccccc1)c1nc(OCC(F)(F)F)cc(OCC(F)(F)F)n1` [Compound 63], the mortality at 50 µg/cm2 in assay [1] (setting [3]) and in assay [2] (setting [3]) was 100% throughout.

`O=C(Nc1nc(OCC(F)(F)F)cc(OCC(F)(F)F)n1)N(O)c1ccc(Cl)cc1` [Compound 64, N′-[4,6-bis(2,2,2-trifluoroethoxy)pyrimidin-2-yl]-N-(4chlorophenyl)-N-hydroxyurea]: the mortality at 50 µg/cm2 in assay [1] (setting [3]) and in assay [2] (setting [3]) was 100% throughout.

`CON(C(=O)Nc1nc(OCC(F)(F)F)cc(OCC(F)(F)F)n1)c1ccc(Cl)cc1` [Compound 65, N′-[4,6-bis(2,2,2-trifluoroethoxy)pyrimidin-2-yl]-N-(4-chlorophenyl)-N-methoxyurea]: the mortality at 50 µg/cm2 in assay [1] (setting [3]) and in assay [2] (setting [3]) was 100% in each case.

For the compound `CC(C)OCN(C(=O)N(COCc1ccccc1)c1nc(OCC(F)(F)F)cc(OCC(F)(F)F)n1)c1ccc(Br)cc1` [Compound 66], the mortality at 50 µg/cm2 in assay [1] (setting [3]) and in assay [2] (setting [3]) was 100% each time.

`CCOCN(C(=O)N(COCc1ccccc1)c1nc(OCC(F)(F)F)cc(OCC(F)(F)F)n1)c1ccc(Br)cc1` [Compound 67]: the mortality at 50 µg/cm2 in assay [1] (setting [3]) and in assay [2] (setting [3]) was 100% in each case.

`COCN(C(=O)N(COCc1ccccc1)c1nc(OCC(F)(F)F)cc(OCC(F)(F)F)n1)c1ccc(Br)cc1` [Compound 68]: the mortality at 50 µg/cm2 in assay [1] (setting [3]) and in assay [2] (setting [3]) was 100% each time.

As to `CC(C)N(C(=O)Nc1nc(OCC(F)(F)F)cc(OCC(F)(F)F)n1)c1ccc(OC(F)(F)F)cc1` [Compound 69], the mortality at 50 µg/cm2 in assay [1] (setting [3]) and in assay [2] (setting [3]) was 100% in each case.

For the compound `CN(C)CCN(C(=O)Nc1nc(OCC(F)(F)F)cc(OCC(F)(F)F)n1)c1ccc(OC(F)(F)F)cc1` [Compound 70], the mortality at 50 µg/cm2 in assay [1] (setting [3]) and in assay [2] (setting [3]) was 100% in each case.

Take `CN(C(=O)Nc1nc(OCC(F)(F)F)cc(OCC(F)(F)F)n1)c1ccc(OCC(F)F)cc1` [Compound 71]: the mortality at 50 µg/cm2 in assay [1] (setting [3]) and in assay [2] (setting [3]) was 100% throughout.

With `O=C(Nc1ccc(Br)c(F)c1)Nc1nc(OCC(F)(F)F)cc(OCC(F)(F)F)n1` [Compound 72], the mortality at 50 µg/cm2 in assay [1] (setting [3]) is 0%; in assay [2] (setting [3]), 100%.

Regarding `CCOCN(C(=O)Nc1nc(OCC(F)(F)F)cc(OCC(F)(F)F)n1)c1ccc(Br)cc1` [Compound 74], the mortality at 50 µg/cm2 in assay [1] (setting [3]) and in assay [2] (setting [3]) was 100% each time.

As to `O=C(Nc1cc(F)c(C(F)(F)F)c(F)c1)Nc1nc(OCC(F)(F)F)cc(OCC(F)(F)F)n1` [Compound 76], the mortality at 50 µg/cm2 in assay [1] (setting [3]) and in assay [2] (setting [3]) was 100% in each case.

As for `N#CCN(C(=O)Nc1nc(OCC(F)(F)F)cc(OCC(F)(F)F)n1)c1ccc(OC(F)(F)F)cc1` [Compound 77], the mortality at 50 µg/cm2 in assay [1] (setting [3]) and in assay [2] (setting [3]) was 100% each time.

Take `O=C(Nc1ccc(C(F)(F)F)c(F)c1)Nc1nc(OCC(F)(F)F)cc(OCC(F)(F)F)n1` [Compound 78]: the mortality at 50 µg/cm2 in assay [1] (setting [3]) and in assay [2] (setting [3]) was 100% each time.

As for `CN(C(=O)Nc1nc(OCC(F)(F)F)cc(OCC(F)(F)F)n1)c1ccc([N+](=O)[O-])cc1` [Compound 79], the mortality at 50 µg/cm2 in assay [1] (setting [3]) and in assay [2] (setting [3]) was 100% throughout.

Values taken from patent publication US8455649B2, “Insecticidal substituted azinyl derivatives” (Dow AgroSciences, LLC, priority 2007, dated 2013).
